Data reported in ChEMBL document CHEMBL1128783, “N-Methyl and N-cyclopropylmethyl-14,14-[dithiobis[(2-oxo-2,1-ethanediyl)imino]]bis(7,8-dihydro-5-methyl-morphinone) MET-TAMO and N-CPM-MET-TAMO: Synthesis and opioid binding properties” (Bioorg Med Chem Lett, 1995).

Columns and labels:
Mu-type opioid receptor [1] = molecular target: T1, Mu-type opioid receptor (Bos taurus, UniProt P79350); experiment: Binding affinity towards Opioid receptor mu 1 using [3H]DAMGO expressed as Kd
Mu-type opioid receptor [2] = molecular target: T1, Mu-type opioid receptor; experiment: Inhibitory activity against Opioid receptor mu 1 binding to bovine striatal membrane; design: species or system Striatum
[3] = molecular target: Mu-type opioid receptor (Bos taurus) (UniProt P79350); experiment: Effect at dose 40 nM on wash-resistant inhibition of [3H]DAMGO binding to TPCK-treated membranes; design: scale not given: the % may be the effect or the level left
[4] = Inhibitory activity against Opioid receptor delta 1 binding to bovine striatal membrane
[5] = Inhibitory activity against Opioid receptor kappa1 binding to bovine striatal membrane

T1 sequence (P79350 whole entry): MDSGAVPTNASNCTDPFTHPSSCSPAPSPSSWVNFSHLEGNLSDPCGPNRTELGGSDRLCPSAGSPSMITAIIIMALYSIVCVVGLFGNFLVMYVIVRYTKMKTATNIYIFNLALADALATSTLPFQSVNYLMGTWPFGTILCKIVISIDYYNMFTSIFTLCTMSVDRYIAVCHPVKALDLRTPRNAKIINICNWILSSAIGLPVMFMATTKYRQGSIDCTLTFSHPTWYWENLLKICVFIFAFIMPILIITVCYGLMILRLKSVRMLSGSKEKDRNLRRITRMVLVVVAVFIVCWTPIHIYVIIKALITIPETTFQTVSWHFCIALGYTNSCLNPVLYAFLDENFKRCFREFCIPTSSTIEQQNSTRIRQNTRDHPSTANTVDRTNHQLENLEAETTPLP
Sequence of Mu-type opioid receptor (Bos taurus) (P79350 whole entry): as above

Row | Control [3] [%] | Compound | Kd (Mu-type opioid receptor [1]) [nM] | IC50 (Mu-type opioid receptor [2]) [nM] | IC50 [4] [nM] | IC50 [5] [nM]
1 |  | C[C@@]12Oc3c(O)ccc4c3[C@@]13CCN(CC1CC1)[C@H](C4)[C@]3(NC(=O)CSSCC(=O)N[C@@]13CCC(=O)[C@]4(C)Oc5c(O)ccc6c5[C@@]41CCN(CC1CC1)[C@@H]3C6)CCC2=O | 0.4 | 1.4 |  | 
2 | 107 | OC(CS)C(O)CS (centres undefined) |  |  |  | 
3 |  | CN1CC[C@]23c4c5ccc(O)c4O[C@@]2(C)C(=O)CC[C@@]3(NC(=O)CSSCC(=O)N[C@@]23CCC(=O)[C@]4(C)Oc6c(O)ccc7c6[C@@]42CCN(C)C3C7)C1C5 |  | 2.9 |  | 
4 |  | O=C(CSSCC(=O)N[C@@]12CCC(=O)[C@@H]3Oc4c(O)ccc5c4[C@@]31CCN(CC1CC1)[C@@H]2C5)N[C@@]12CCC(=O)[C@@H]3Oc4c(O)ccc5c4[C@@]31CCN(CC1CC1)[C@@H]2C5 |  | 3.9 | 24 | 10
5 |  | CN1CC[C@]23c4c5ccc(O)c4O[C@H]2C(=O)CC[C@@]3(NC(=O)CSSCC(=O)N[C@@]23CCC(=O)[C@@H]4Oc6c(O)ccc7c6[C@@]42CCN(C)[C@@H]3C7)[C@H]1C5 |  |  | 11 | 41
